From ChEMBL document CHEMBL1201862, “PubChem BioAssay data set” (2004)
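Values below derive from 48-hour exposures of cells grown in 96-well plates, with endpoints linearly interpolated between the two concentrations bracketing the appropriate inhibition level. GI50 marks 50% less growth.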 Calls of active or inactive are those of the source. Rule as the data show it: active = GI50 up to about 1.1 µM and inactive = higher.

Key:
Assay in all cases: NCI tumour cell line growth inhibition, 48 h
786-0 = test system: 786-0
A549 = test system: A549
COLO 205 = test system: COLO 205
HCT-116 = test system: HCT-116
Hs-578T = test system: Hs-578T
K562 = test system: K562
LOX IMVI = test system: LOX IMVI
M14 = test system: M14
MOLT-4 = test system: MOLT-4
NCI-H522 = test system: NCI-H522
NCI/ADR-RES = test system: NCI/ADR-RES
RPMI-8226 = test system: RPMI-8226
RXF 393 = test system: RXF 393
SF-268 = test system: SF-268
SK-MEL-2 = test system: SK-MEL-2
SK-OV-3 = test system: SK-OV-3
SW-620 = test system: SW-620
TK-10 = test system: TK-10
U-251 = test system: U-251
UACC-62 = test system: UACC-62

Row | SMILES | GI50 (786-0) | GI50 (A549) | GI50 (COLO 205) | GI50 (HCT-116) | GI50 (Hs-578T) | GI50 (K562) | GI50 (LOX IMVI) | GI50 (M14) | GI50 (MOLT-4) | GI50 (NCI-H522) | GI50 (NCI/ADR-RES) | GI50 (RPMI-8226) | GI50 (RXF 393) | GI50 (SF-268) | GI50 (SK-MEL-2) | GI50 (SK-OV-3) | GI50 (SW-620) | GI50 (TK-10) | GI50 (U-251) | GI50 (UACC-62)
1 | Cn1c(=S)c2nc(SCCCc3ccccc3)[nH]c2n(C)c1=O | 25.1 µM (inactive) | 13.7 µM (inactive) | 12.6 µM (inactive) | 21.8 µM (inactive) | > 100 µM (inactive) | 19.7 µM (inactive) | 27.5 µM (inactive) | 17.6 µM (inactive) | 13.5 µM (inactive) | 4.33 µM (inactive) | 22.3 µM (inactive) | 15.1 µM (inactive) | 56.5 µM (inactive) | 32.5 µM (inactive) | 40.8 µM (inactive) | 42.2 µM (inactive) | 36.4 µM (inactive) | 17.4 µM (inactive) | 23.2 µM (inactive) | 26.2 µM (inactive)
2 | O=C1Nc2ccccc2/C1=N/Nc1ccccc1Cl | 10.6 µM (inactive) | 45.7 µM (inactive) | 24.9 µM (inactive) | 23.7 µM (inactive) | 22.3 µM (inactive) | 43.5 µM (inactive) | 69 µM (inactive) | 96.2 µM (inactive) | 75.2 µM (inactive) | 37.8 µM (inactive) | 44.6 µM (inactive) | 64.9 µM (inactive) | 34.8 µM (inactive) | 29.8 µM (inactive) | 63.5 µM (inactive) | 16.1 µM (inactive) | > 100 µM (inactive) | 5.41 µM (inactive) | 17.6 µM (inactive) | 89.3 µM (inactive)
3 | [N-]=[N+]=NC(c1ccccc1)(c1ccccc1)c1ccccc1 | 17.1 µM (inactive) | 17 µM (inactive) | 14.6 µM (inactive) | 16 µM (inactive) | 22.8 µM (inactive) | 14.8 µM (inactive) | 19.1 µM (inactive) | 18.4 µM (inactive) | 16.1 µM (inactive) | 16.5 µM (inactive) | 16.7 µM (inactive) | 19.3 µM (inactive) | 15.7 µM (inactive) | 18.5 µM (inactive) | 15.5 µM (inactive) | 29.4 µM (inactive) | 17.7 µM (inactive) | 17.5 µM (inactive) | 15.8 µM (inactive) | 15.4 µM (inactive)
4 | C/C(=N\NC(=O)c1ccncc1)c1ccccc1Cl | > 100 µM (inactive) | > 100 µM (inactive) | > 100 µM (inactive) | > 100 µM (inactive) | > 100 µM (inactive) | > 100 µM (inactive) | > 100 µM (inactive) | > 100 µM (inactive) | > 100 µM (inactive) | > 100 µM (inactive) | > 100 µM (inactive) | 79.6 µM (inactive) | > 100 µM (inactive) | > 100 µM (inactive) | > 100 µM (inactive) | > 100 µM (inactive) | > 100 µM (inactive) | > 100 µM (inactive) | > 100 µM (inactive) | > 100 µM (inactive)
5 | Cc1ccc(C2(C)CC/C(=N/N=C3/CCC(C)(c4ccc(C)c(C)c4)c4cc(C)c(C)cc43)c3cc(C)c(C)cc32)cc1C (stereo unspecified) | > 100 µM (inactive) | > 100 µM (inactive) | > 100 µM (inactive) | > 100 µM (inactive) | > 100 µM (inactive) | > 100 µM (inactive) | > 100 µM (inactive) | > 100 µM (inactive) | > 100 µM (inactive) | > 100 µM (inactive) | > 100 µM (inactive) | > 100 µM (inactive) | > 100 µM (inactive) | > 100 µM (inactive) | > 100 µM (inactive) | > 100 µM (inactive) | > 100 µM (inactive) | > 100 µM (inactive) | > 100 µM (inactive) | > 100 µM (inactive)
6 | O=c1[nH]c(NCc2cccnc2)nc2[nH]cnc12 | > 100 µM (inactive) | > 100 µM (inactive) | > 100 µM (inactive) | > 100 µM (inactive) | > 100 µM (inactive) | > 100 µM (inactive) | > 100 µM (inactive) | > 100 µM (inactive) | > 100 µM (inactive) | 41.4 µM (inactive) | > 100 µM (inactive) | > 100 µM (inactive) | > 100 µM (inactive) | > 100 µM (inactive) | > 100 µM (inactive) | > 100 µM (inactive) | > 100 µM (inactive) | > 100 µM (inactive) | > 100 µM (inactive) | > 100 µM (inactive)
7 | Cc1cc2nc(C=C(C(F)(F)F)C(F)(F)F)sc2cc1C | 0.316 µM (active) | 4.02 µM (inactive) | 1.4 µM (inactive) | 1.1 µM (active) | 1.87 µM (inactive) | 0.0693 µM (active) | 0.294 µM (active) | 0.782 µM (active) | 0.11 µM (active) | 0.31 µM (active) | 0.55 µM (active) | 0.055 µM (active) | 1.16 µM (inactive) | 3.05 µM (inactive) | 1.73 µM (inactive) | 7.62 µM (inactive) | 0.957 µM (active) | 2.34 µM (inactive) | 0.871 µM (active) | 1.85 µM (inactive)
8 | O=C1CC2(CCN(CC3COc4ccccc4O3)CC2)C(=O)N1N1CCCCCC1 (stereo unspecified) | > 100 µM (inactive) | > 100 µM (inactive) | 35.9 µM (inactive) | 52.6 µM (inactive) | 44.1 µM (inactive) | 15.6 µM (inactive) | 28.9 µM (inactive) | 69.3 µM (inactive) | 20.7 µM (inactive) | 78.5 µM (inactive) | 52.7 µM (inactive) | 59.8 µM (inactive) | 64.6 µM (inactive) | > 100 µM (inactive) | > 100 µM (inactive) | > 100 µM (inactive) | – | > 100 µM (inactive) | > 100 µM (inactive) | > 100 µM (inactive)
9 | CCOP(C)(=O)/C(Cc1ccc(OC)c(OC)c1)=N\O (stereo unspecified) | > 100 µM (inactive) | > 100 µM (inactive) | > 100 µM (inactive) | > 100 µM (inactive) | > 100 µM (inactive) | > 100 µM (inactive) | > 100 µM (inactive) | > 100 µM (inactive) | > 100 µM (inactive) | > 100 µM (inactive) | > 100 µM (inactive) | > 100 µM (inactive) | > 100 µM (inactive) | – | > 100 µM (inactive) | > 100 µM (inactive) | > 100 µM (inactive) | > 100 µM (inactive) | > 100 µM (inactive) | > 100 µM (inactive)
10 | NC1=Nc2cc(C(F)(F)F)ccc2Sc2nc3ccccc3n21 | 11.6 µM (inactive) | > 56 µM (inactive) | > 21.2 µM (inactive) | 3.73 µM (inactive) | 42.1 µM (inactive) | 5.75 µM (inactive) | 4.85 µM (inactive) | 3.98 µM (inactive) | 4.24 µM (inactive) | 10.4 µM (inactive) | > 100 µM (inactive) | 6.25 µM (inactive) | > 53.5 µM (inactive) | 16.6 µM (inactive) | 55.8 µM (inactive) | 37.5 µM (inactive) | > 100 µM (inactive) | > 67 µM (inactive) | 5.56 µM (inactive) | 57.4 µM (inactive)
11 | Cc1cc(NN)nc2[nH]nc(N)c12 | > 100 µM (inactive) | > 100 µM (inactive) | > 100 µM (inactive) | > 100 µM (inactive) | > 100 µM (inactive) | > 100 µM (inactive) | > 100 µM (inactive) | > 100 µM (inactive) | 43.3 µM (inactive) | > 100 µM (inactive) | > 100 µM (inactive) | > 100 µM (inactive) | > 100 µM (inactive) | > 100 µM (inactive) | > 100 µM (inactive) | > 100 µM (inactive) | > 100 µM (inactive) | > 100 µM (inactive) | > 100 µM (inactive) | > 100 µM (inactive)
12 | Cc1ccccc1C(=O)N/N=C/c1ccc(Sc2nccn2C)c([N+](=O)[O-])c1 | > 100 µM (inactive) | > 100 µM (inactive) | 56 µM (inactive) | 84.3 µM (inactive) | 85.9 µM (inactive) | 42.4 µM (inactive) | 50.8 µM (inactive) | > 100 µM (inactive) | 54.6 µM (inactive) | 61.9 µM (inactive) | > 100 µM (inactive) | 47.9 µM (inactive) | 74.3 µM (inactive) | > 100 µM (inactive) | 68.7 µM (inactive) | > 100 µM (inactive) | > 100 µM (inactive) | > 100 µM (inactive) | 85.1 µM (inactive) | 71.9 µM (inactive)
13 | c1ccc2c(C3CCN(CCN4CCOCC4)C3)c[nH]c2c1 (stereo unspecified) | > 100 µM (inactive) | > 100 µM (inactive) | – | > 100 µM (inactive) | > 100 µM (inactive) | > 100 µM (inactive) | > 100 µM (inactive) | > 100 µM (inactive) | – | > 100 µM (inactive) | > 100 µM (inactive) | > 100 µM (inactive) | > 100 µM (inactive) | > 100 µM (inactive) | > 100 µM (inactive) | > 100 µM (inactive) | > 100 µM (inactive) | > 100 µM (inactive) | > 100 µM (inactive) | > 100 µM (inactive)
14 | Cc1c(-c2ccccc2)[nH]n(C2=NCCN2)c1=O | > 100 µM (inactive) | > 100 µM (inactive) | > 100 µM (inactive) | > 100 µM (inactive) | > 100 µM (inactive) | > 100 µM (inactive) | > 100 µM (inactive) | > 100 µM (inactive) | > 100 µM (inactive) | > 100 µM (inactive) | > 100 µM (inactive) | > 100 µM (inactive) | > 100 µM (inactive) | > 100 µM (inactive) | > 100 µM (inactive) | > 100 µM (inactive) | > 100 µM (inactive) | > 100 µM (inactive) | > 100 µM (inactive) | > 100 µM (inactive)
